Assay results reported in PubChem BioAssay (NCI).
Where “and” joins values, the source holds several entries; their conditions need not be identical. Identical values can stand only once.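 Cultured in 96-well plates, cells were exposed to test compound for 48 hours across five concentrations. GI50 = concentration required for 50% inhibition of growth. The concentration for full growth arrest is given as TGI.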

Experiments:
Assay in all cases: inhibition of tumour cell growth, NCI panel, 48 h
K-562 leukemia = system: K-562 leukemia
ACHN renal = system: ACHN renal
OVCAR-3 ovarian = system: OVCAR-3 ovarian
MOLT-4 leukemia = system: MOLT-4 leukemia
HCC-2998 colon = system: HCC-2998 colon
COLO 205 colon = system: COLO 205 colon
SK-MEL-28 melanoma = system: SK-MEL-28 melanoma
SK-MEL-2 melanoma = system: SK-MEL-2 melanoma
TK-10 renal = system: TK-10 renal
SR leukemia = system: SR leukemia

Structure (SMILES) | GI50 (K-562 leukemia) | TGI (K-562 leukemia) | GI50 (ACHN renal) | TGI (ACHN renal) | GI50 (OVCAR-3 ovarian) [µM] | TGI (OVCAR-3 ovarian) | GI50 (MOLT-4 leukemia) [µM] | TGI (MOLT-4 leukemia) [µM] | GI50 (HCC-2998 colon) [µM] | TGI (HCC-2998 colon) | GI50 (COLO 205 colon) | TGI (COLO 205 colon) | GI50 (SK-MEL-28 melanoma) [µM] | TGI (SK-MEL-28 melanoma) [µM] | GI50 (SK-MEL-2 melanoma) [µM] | TGI (SK-MEL-2 melanoma) [µM] | GI50 (TK-10 renal) | TGI (TK-10 renal) | TGI (SR leukemia) [µM]
CC(=O)[CH-]C(C)=O.CC(=O)[CH-]C(C)=O.CC[O-].CC[O-].[Ti+4] | > 100 µM | > 100 µM | > 100 µM | > 100 µM | > 100 | > 100 µM | > 100 | > 100 | > 100 | > 100 µM | > 100 µM | > 100 µM | > 100 | > 100 | > 100 | > 100 | > 100 µM | > 100 µM | –
CN(C)CC/C(=N\Nc1ccc(Cl)cc1Cl)c1ccccc1 | – | 33.4 µM | – | 29.4 µM | – | 27 µM | – | 42 | – | – | – | 29.2 µM | – | 28.5 | – | 28.6 | – | 28.3 µM | 32.3
CNCCN=c1ccc2c3c1c(O)c1c(O)ccc(=O)c1c3[nH]n2CCNCCO | 0.224 µM and 0.296 µM | 3.66 µM and 10.9 µM | 0.0844 µM and 0.0775 µM | 0.708 µM and 0.259 µM | 1.16 | 3.99 µM and 5.12 µM | – | – | – | 1.61 µM and 8.62 µM | 0.398 µM and 0.56 µM | 4.41 µM and 4.59 µM | 1.5 | 6.87 | – | – | 1.14 µM and 5.32 µM | 7.54 µM and 18.6 µM | 3.25
C/C=N\N1C(=O)c2ccccc2C1=O | – | > 100 µM | – | > 100 µM | – | > 100 µM | – | > 100 | – | > 100 µM | – | – | – | > 100 | – | > 100 | – | > 100 µM | > 100
C[C@]12CCC(=O)C=C1CC[C@@H]1C2CC[C@]2(C)c3nn(-c4ccccc4)nc3CC12 (stereo partly specified) | – | > 100 µM | – | > 100 µM | – | > 100 µM | – | > 100 | – | > 100 µM | – | > 100 µM | – | > 100 | – | > 100 | – | > 100 µM | –
CC1(C)CC(N(C(=O)/C=C/c2ccc([N+](=O)[O-])o2)C2CCCCC2)CC(C)(C)N1 | – | – | – | 25.4 µM | – | 25.2 µM | – | 18.2 | – | 23.6 µM | – | – | – | 25.1 | – | – | – | 35.8 µM | 21.2
CCN(CC)CCNC(=O)c1cccc2nc3ccccc3nc12 | – | > 100 µM | – | > 100 µM | – | > 50 µM | – | 37.3 | – | 52 µM | – | > 41.4 µM | – | 34.3 | – | 28.2 | – | > 100 µM | –
COc1cc2c3c(n(C)c(=O)c2cc1OC)-c1cc2c(cc1/C3=C\CCNCCCN)OCO2 | 2.08 µM | 12.1 µM | 1.3 µM | 6.89 µM | – | – | 0.364 | 44.4 | – | – | 0.487 µM | 15.4 µM | 2.87 | 91.8 | 5.09 | > 100 | 5.29 µM | 22.4 µM | –
CN1C/C(=C\C=C\c2ccccc2)C(=O)/C(=C/C=C/c2ccccc2)C1 | – | > 100 µM | – | > 100 µM | – | > 100 µM | – | > 100 | – | > 100 µM | – | > 100 µM | – | > 100 | – | > 100 | – | > 100 µM | –
O=C1/C(=C/c2ccc(Br)cc2)CCC/C1=C\c1ccc(Br)cc1 | – | 21.2 µM | – | 29.8 µM | – | 15.9 µM | – | 23.5 | – | 6.48 µM | – | 28.4 µM | – | 14.1 | – | 63 | – | 83.1 µM | –
C=CC1=C(C)C2=NC1=CC1=NC(=C(CC)/C1=C\O)C=C1N=C3C(=C1C)C(=O)[C@H](C(=O)OC)C3=C1NC(=C2)[C@@H](C)[C@@H]1CCC(=O)O | – | > 100 µM | – | > 100 µM | – | – | – | > 100 | – | > 100 µM | – | > 100 µM | – | > 100 | – | > 100 | – | > 100 µM | –
O=[N+]([O-])c1ccc(C=NC23CC4CC(CC(C4)C2)C3)cc1 | – | > 100 µM | – | > 100 µM | – | > 100 µM | – | > 100 | – | > 100 µM | – | > 100 µM | – | > 100 | – | > 100 | – | > 100 µM | –
CN(C)C(=O)Oc1c(-c2ccccc2)c(=O)n2c3ccccc3n3c(=O)n(C)c(=O)c1c23 | – | – | – | > 100 µM | – | > 100 µM | – | > 100 | – | > 100 µM | – | > 100 µM | – | > 100 | – | > 100 | – | > 100 µM | > 100
C=C1C(=O)O[C@H]2[C@H]1CC/C(COC(=O)NCc1ccc(Cn3c(=O)sn(-c4ccccc4)c3=O)cc1)=C\CC[C@@]1(C)O[C@@H]21 | 1.8 µM | > 100 µM | 1.64 µM | 3.14 µM | 1.68 | 3.12 µM | 2.2 | 7.09 | 1.99 | 3.82 µM | 1.77 µM | 3.44 µM | 1.7 | 3.41 | 2.39 | 6.34 | 2.21 µM | 4.05 µM | –
